Source: publication PMC4139341 (PLoS ONE, 2014)

How the values were obtained:
[1] = target: glycation of BSA (Bovine Serum Albumin) (Bos taurus, UniProt P02769); details: AGE fluorescence and Thioflavin T fluorescence
Experimental: (§1) 1.5mg/ml insulin and 0.1 M glucose were incubated with various concentrations of protryptiline in 10 mM PBS, pH 7.0 for 7 days. These samples were further used to study glycation inhibition by MALDI. BSA glycation reaction was performed in a similar manner with 1mg/ml BSA concentration and inhibition was studied by AGE fluorescence and Thioflavin T assay ^1.

glycation of insulin = glycation of insulin (Homo sapiens, UniProt P01308); details: MALDI; 500 µM and 1000 µM protriptyline
Experimental: as §1

BACE-1 = BACE-1 (Homo sapiens, UniProt P56817); assay: biochemical
Experimental: BACE-1 activity was studied in accordance with the manufacturer's instructions (Sigma). […] Negative control included all the reactants except BACE-1 enzyme. After 2 h, fluorescence emission was measured at 405 nm upon excitation at 320 nm.
(§2) Lineweaver-Burk double reciprocal plot was plotted in order to determine the Km. […] The Ki was calculated directly from IC50 value using Cheng-Prussoffs classical equation [45]. [drawing 1]
(§3) The reciprocals of reaction rate (1/v) for each inhibitor concentration were plotted against the reciprocals of the substrate concentrations (1/S).

Bovine trypsin = Bovine trypsin (Bos taurus, UniProt P00760); details: 0.1 and 0.5 mM
Experimental: Activity of Bovine trypsin was estimated using enzyme-specific chromogenic substrate BApNA [46]. […] Further, 1 ml BApNA was added to the reaction mixture and incubated for 10 min at 37°C. The reaction was terminated by addition of 200 µl of 30% acetic acid and absorbance was measured at 410 nm.

Aβ13–22 [2] = target: T1, Aβ13–22 (Homo sapiens, UniProt P05067)
Experimental: (§4) Aβ13–22 peptide ([…]), the aggregation prone region of Aβ, was synthesized from Thermo Fisher Scientific. Synthetic Aβ13–22 peptide was dissolved in 10% ammonium hydroxide and sonicated for 5 min. It was then diluted in 10 mM PBS, pH 7.0 to a final concentration of 200 µM.
Inhibition of aggregation/ glycation mediated aggregation of Aβ was detected by static light scattering method using a Perkin-Elmer Luminescence spectrometer LS50B. Both excitation and emission wavelengths were set at 400 nm. Excitation and emission slit width was set to 10 nm and 2.5 nm, respectively. Scattering was recorded for 60 sec.

ADAM17 = ADAM17 (Homo sapiens, UniProt P78536); assay: biochemical; details: read-out: inhibition of ADAM 17
Experimental: Fluorescence was measured at 328 nm and 420 nm for excitation and emission respectively.

Aβ13–22 [3] = target: T1, Aβ13–22; details: incubated 7 days, protriptyline 0.010 mM; ∼400 nm average without
Experimental: as §4

glycation of Aβ13–22 = glycation of Aβ13–22 (Homo sapiens, UniProt P05067); details: excitation 370 nm, emission 440 nm; 0.1 M glucose, 7 days
Experimental: The details of insulin and BSA glycation are described in Method S1. […] These samples were further used to study glycation mediated Aβ aggregation by different assays.
Glycation associated fluorescence of Aβ was measured in amyloid, glycated amyloid treated with or without protryptiline at 370 nm excitation and emission was scanned from 400–550 nm.

[4] = target: AChE activity in neuro2a cells (Mus musculus, UniProt P21836); details: 25 µM and 60 µM protriptyline
Experimental: Murine neuro2a neuroblastoma cells were obtained from National Center for Cell Science, Pune, India. The cells were maintained in Dulbecco's modified Eagle's medium (DMEM) and 10% Fetal Bovine Serum (FBS). Cells were maintained at 37°C in humidified air containing 5% CO2 and were grown in monolayer cultures.

Aβ13–22 [5] = target: T1, Aβ13–22; assay: biochemical
Experimental: as §4
Thioflavin T assay was performed on 7th day of incubation. 50 µl (25 µM) of Aβ13–22 was mixed with 150 µl of Thioflavin T (ThT) stock solution (50 µM ThT in PBS pH 7.0) and placed in 96-well plate (black with flat bottom, Cornings). Fluorescence emission was measured at 460–550 nm upon excitation at 440 nm. To account for background fluorescence, the fluorescence intensity measured from each control solution without Aβ was subtracted from each solution containing Aβ13–22.

AChE = AChE (Electrophorus electricus, UniProt O42275); assay: biochemical
Experimental: The modified method of Ellman et al. was adopted to measure AChE activity. Briefly, 25 µl (0.3 U/ml) AChE from Electric eel fish (Electrophorus electricus) was incubated with and without different concentrations of drugs selected from Molecular Docking studies. The reaction was carried out for 15 min at 25°C. […] Total volume of the reaction was made up to 1 ml by Tris buffer, pH 8.0. ATCI hydrolysis was measured by colored product formation, 5-thio-2-nitrobenzoate anion by reaction between DTNB and thiocholine, a hydrolysis product of ATCI. The formation of the colored product was measured at 405 nm wavelength after 30 min. The background was determined from negative controls (omission of AChE enzyme).
as §2, §3

Sequence of BACE-1 (P56817 46-501): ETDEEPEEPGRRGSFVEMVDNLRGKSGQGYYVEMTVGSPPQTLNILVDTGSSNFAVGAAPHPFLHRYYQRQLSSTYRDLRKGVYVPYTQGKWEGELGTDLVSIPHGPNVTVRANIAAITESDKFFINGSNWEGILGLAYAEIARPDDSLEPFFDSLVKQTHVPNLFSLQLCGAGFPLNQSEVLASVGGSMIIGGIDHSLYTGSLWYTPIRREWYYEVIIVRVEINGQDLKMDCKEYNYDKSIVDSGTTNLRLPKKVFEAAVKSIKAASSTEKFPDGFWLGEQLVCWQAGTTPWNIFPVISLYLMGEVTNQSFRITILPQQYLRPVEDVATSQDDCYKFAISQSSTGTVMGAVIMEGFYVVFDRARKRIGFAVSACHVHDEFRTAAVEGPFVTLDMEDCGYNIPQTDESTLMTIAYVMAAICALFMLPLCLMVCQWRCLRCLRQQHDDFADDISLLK
Sequence of AChE (O42275 24-633): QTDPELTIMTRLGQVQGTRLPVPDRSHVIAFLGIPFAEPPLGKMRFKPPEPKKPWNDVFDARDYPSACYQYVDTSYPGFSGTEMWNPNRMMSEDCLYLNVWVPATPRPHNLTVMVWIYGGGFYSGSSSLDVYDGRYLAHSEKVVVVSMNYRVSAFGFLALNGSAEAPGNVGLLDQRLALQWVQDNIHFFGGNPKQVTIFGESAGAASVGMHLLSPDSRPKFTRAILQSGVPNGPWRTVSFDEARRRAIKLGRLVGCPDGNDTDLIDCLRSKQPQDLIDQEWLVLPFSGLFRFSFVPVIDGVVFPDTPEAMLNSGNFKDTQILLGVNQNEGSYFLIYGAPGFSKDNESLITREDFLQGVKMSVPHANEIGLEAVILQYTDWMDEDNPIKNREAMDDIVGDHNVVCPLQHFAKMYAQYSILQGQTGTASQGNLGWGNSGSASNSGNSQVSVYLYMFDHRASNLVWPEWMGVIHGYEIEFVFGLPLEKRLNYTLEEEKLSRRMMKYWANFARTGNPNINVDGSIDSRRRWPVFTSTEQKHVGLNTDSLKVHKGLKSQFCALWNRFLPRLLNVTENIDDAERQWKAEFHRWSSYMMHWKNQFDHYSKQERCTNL
Sequence of ADAM17 (P78536 215-824, species assumed): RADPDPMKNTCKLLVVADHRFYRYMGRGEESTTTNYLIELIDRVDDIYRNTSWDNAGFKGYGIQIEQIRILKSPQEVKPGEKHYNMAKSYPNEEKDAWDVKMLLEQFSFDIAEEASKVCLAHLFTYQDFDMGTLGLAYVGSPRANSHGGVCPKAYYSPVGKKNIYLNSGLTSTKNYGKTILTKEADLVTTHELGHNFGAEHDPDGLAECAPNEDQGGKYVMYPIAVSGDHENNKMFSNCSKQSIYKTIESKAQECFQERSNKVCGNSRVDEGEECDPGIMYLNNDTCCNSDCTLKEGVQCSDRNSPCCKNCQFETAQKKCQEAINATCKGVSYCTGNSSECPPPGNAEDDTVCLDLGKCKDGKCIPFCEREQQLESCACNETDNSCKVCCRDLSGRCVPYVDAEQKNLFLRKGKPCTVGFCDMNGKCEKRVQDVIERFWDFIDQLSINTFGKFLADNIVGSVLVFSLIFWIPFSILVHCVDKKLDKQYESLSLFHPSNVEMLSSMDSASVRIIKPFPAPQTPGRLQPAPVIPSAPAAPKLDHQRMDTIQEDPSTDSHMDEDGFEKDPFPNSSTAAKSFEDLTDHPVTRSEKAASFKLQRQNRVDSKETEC
Sequence of glycation of BSA (Bovine Serum Albumin) (P02769 25-607): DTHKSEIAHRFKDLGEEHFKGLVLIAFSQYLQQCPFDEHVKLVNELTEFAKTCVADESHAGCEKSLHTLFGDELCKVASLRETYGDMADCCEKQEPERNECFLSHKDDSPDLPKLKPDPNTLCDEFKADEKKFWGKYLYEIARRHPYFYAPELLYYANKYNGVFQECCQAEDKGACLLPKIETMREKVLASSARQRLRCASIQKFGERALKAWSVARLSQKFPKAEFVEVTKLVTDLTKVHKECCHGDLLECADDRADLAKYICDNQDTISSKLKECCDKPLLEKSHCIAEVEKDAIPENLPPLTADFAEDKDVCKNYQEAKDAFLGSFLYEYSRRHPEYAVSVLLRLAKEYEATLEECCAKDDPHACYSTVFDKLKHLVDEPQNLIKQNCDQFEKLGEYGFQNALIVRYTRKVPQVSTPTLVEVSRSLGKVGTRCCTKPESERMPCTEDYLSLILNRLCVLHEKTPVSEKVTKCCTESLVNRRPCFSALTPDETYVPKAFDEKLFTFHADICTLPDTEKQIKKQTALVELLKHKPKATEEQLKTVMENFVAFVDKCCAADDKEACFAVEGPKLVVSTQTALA
Sequence of glycation of insulin (P01308 25-54 limits assumed): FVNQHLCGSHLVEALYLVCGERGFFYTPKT
Sequence of AChE activity in neuro2a cells (P21836 32-614): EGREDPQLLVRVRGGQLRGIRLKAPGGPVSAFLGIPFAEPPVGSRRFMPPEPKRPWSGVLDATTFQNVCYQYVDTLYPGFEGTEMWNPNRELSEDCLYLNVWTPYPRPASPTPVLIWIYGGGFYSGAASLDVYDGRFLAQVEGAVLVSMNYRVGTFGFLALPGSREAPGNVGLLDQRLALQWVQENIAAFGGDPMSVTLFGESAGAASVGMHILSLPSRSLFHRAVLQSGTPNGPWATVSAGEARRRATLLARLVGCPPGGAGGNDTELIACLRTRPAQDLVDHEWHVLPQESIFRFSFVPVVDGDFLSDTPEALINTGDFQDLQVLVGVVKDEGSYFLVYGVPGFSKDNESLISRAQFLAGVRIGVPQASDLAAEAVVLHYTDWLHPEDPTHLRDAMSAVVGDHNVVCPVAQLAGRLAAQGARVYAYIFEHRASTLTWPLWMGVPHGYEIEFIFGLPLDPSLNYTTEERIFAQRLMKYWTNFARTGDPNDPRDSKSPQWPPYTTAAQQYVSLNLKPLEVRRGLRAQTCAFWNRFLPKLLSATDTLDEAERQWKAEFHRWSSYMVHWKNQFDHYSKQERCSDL
Sequence of Bovine trypsin (P00760 24-246): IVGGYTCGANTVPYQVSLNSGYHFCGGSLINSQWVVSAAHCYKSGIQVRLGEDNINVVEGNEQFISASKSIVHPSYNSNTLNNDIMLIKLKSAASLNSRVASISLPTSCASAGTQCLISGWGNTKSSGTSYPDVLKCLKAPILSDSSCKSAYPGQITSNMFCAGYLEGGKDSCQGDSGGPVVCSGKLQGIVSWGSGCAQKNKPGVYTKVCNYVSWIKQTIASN

`CNCCCC1c2ccccc2C=Cc2ccccc21` [protriptyline] was tested, and the “glycation of BSA” value [1] was “inhibited glycation”, the glycation of insulin (glycation of insulin) was “inhibited glycation of insulin” and the Ki (BACE-1) was 5 µM. The IC50 (BACE-1; IC50 for BACE1, summary statement) was under 150 µM, the IC50 (BACE-1; IC50 for BACE-1, 2 h at 37°C) was about 25 µM and the “type of BACE-1 inhibition” value (BACE-1; Lineweaver-Burk plot, 15 µM protriptyline) was “competitive inhibition”. The “inhibition of trypsin activity” value (Bovine trypsin) was “not able to inhibit trypsin activity”, the “light scattering of Aβ aggregates” value (Aβ13–22 [2]) was “reduced the light scattering in a concentration dependent manner” and the inhibition at 100 µM (ADAM17) was about 3%. The inhibition at 500 µM (ADAM17) was about 25%, the “height of Aβ13–22 aggregates (AFM)” value (Aβ13–22 [3]) was about 100 nm and the “glycation associated fluorescence of Aβ” value (glycation of Aβ13–22) was “reduced by protriptyline in a concentration dependent manner”. For the same molecule, the “AChE activity in neuro2a cells” value [4] was “concentration dependent decrease in AChE activity”, the IC50 (Aβ13–22 [5]) was under 150 µM and the “Thioflavin T fluorescence of Aβ13–22” value (Aβ13–22 [5]) was “Concentration dependent decrease in Thioflavin T fluorescence”. For the same molecule, the “lag time of nucleation phase of Aβ13–22 aggregation (ThT fluorescence)” value (Aβ13–22 [5]) was about 50 h.
`CNCCC=C1c2ccccc2CCc2ccccc21` [nortriptyline] showed an IC50 (AChE) of 135 µM.
In the case of `CN(C)CCC=C1c2ccccc2CCc2ccccc21` [amitriptyline], the IC50 (AChE) is reported as 600 µM.
